Test results published in patent publication EP3041353B1, “COMPOSITIONS COMPRISING BACTERIOSTATIC AGENTS AND BRILLIANT BLUE G” (priority 2013, dated 2015).

Key:
Bacillus megaterium = test: Bacteriostatic effect of Octenidin with BBG: turbidity after 24 h incubation; assay type: cell-based; design: key: +: Bakterienwachstum nach 24 h Inkubation; -: kein Bakterienwachstum nach 24 h Inkubation; details: no BBG
Description: (§1) Zur Untersuchung des Einflusses von BBG auf die bakteriostatische Wirkung wurden Bakterien 24 h mit erfindungsgemäßen Zusammensetzungen, Benzalkoniumchlorid (BAK) und Octenidin (Oct) als Bakteriostatikum enthielten, inkubiert. Wenn sich die Inkubationsmischung trübte, wurde das als Bakterienwachstum interpretiert. Zum Vergleich wurde Brillantblau R (BBR) anstelle von BBG eingesetzt. Die Ergebnisse sind in den Tabellen 1-4 wiedergegeben. Tabelle 1: Einfluss von BBG und BBR auf die bakteriostatische Wirkung von BAK gegenüber Escherichia coli (E. coli), + = Bakterienwachstum nach 24 h Inkubation, - = kein Bakterienwachstum nach 24 h Inkubation, R = Brillantblau R (BBR), G = Brillantblau G (BBG).
(§2) Tabelle 4: Einfluss von BBG auf die bakteriostatische Wirkung von Octenidin (Oct) gegenüber Gram-positiven Bakterien., + = Bakterienwachstum nach 24 h Inkubation, - = kein Bakterienwachstum nach 24 h Inkubation, +/- = geringes Wachstum nach 24 h Inkubation, BBG = Brillantblau G.

Paenibacillus sp. = test: as above; assay type: cell-based; design: key: +: Bakterienwachstum nach 24 h Inkubation; -: kein Bakterienwachstum nach 24 h Inkubation; details: no BBG
Description: as §1, §2

Bacillus subtilis = test: as above; assay type: cell-based; design: key: +: Bakterienwachstum nach 24 h Inkubation; -: kein Bakterienwachstum nach 24 h Inkubation; details: no BBG
Description: as §1, §2

[1] = tested on: Clavibacter michiganensis; test: as above; assay type: cell-based; design: key: +: Bakterienwachstum nach 24 h Inkubation; -: kein Bakterienwachstum nach 24 h Inkubation; details: no BBG
Description: as §1, §2

HCE-Zellen = assay type: cell-based, human
Description: Die Erfindung wird im Folgenden rein zu Veranschaulichungszwecken anhand der angehängten Figuren und von Ausführungsbeispielen näher erläutert. • Figur 1 Effekt von 0,025% BBG auf die Toxizität von unterschiedlichen Konzentrationen (in Gew.-%) von Benzalkoniumchlorid (BAK) auf HCE-Zellen (HCE = human corneal epithelium, Menschliche Hornhautepithelzellen) bei verschiedenen Einwirkdauern (5, 30, 60 min). Oben: BAK ohne BBG. Unten: BAK mit BBG. Inkubationsmedium: Phosphat-gepufferte Kochsalzlösung (PBS). • Figur 2 Effekt von BBG (in Gew.-%) in unterschiedlichen Konzentrationen auf die Toxizität von BAK bei 0,003% (oben) und 0,008% (unten). PBS = Phosphat-gepufferte Kochsalzlösung; BBS = balanced salt solution (ausgeglichene Salzlösung). • Figur 3 Effekt von BBG (0,025 Gew.-%) auf die Toxizität von Octenidindihydrochlorid (Oct) in unterschiedlichen Konzentrationen (in Gew.-%) nach 5 min Inkubation (oben) und 30 min Inkubation (unten). Octenidin alone = Octenidin allein (ohne BBG). • Figur 4 Effekt von BBG (0,025 %) auf die Toxizität von Cetylpyridiniumchlorid (CPC) in unterschiedlichen Konzentrationen (in Gew.-%) nach 5 min Inkubation (oben) und 30 min Inkubation (unten). CPC alone = Cetylpyridiniumchlorid allein (ohne BBG). • Figur 5 Effekt von BBG (0,025 %) auf die Toxizität von Chlorhexidin (CHex) in Form von Chlorhexidindigluconat in unterschiedlichen Konzentrationen (in Gew.-%) nach 5 min Inkubation (oben) und 30 min Inkubation (unten). Chlorhexidin alone = Chlorhexidin allein (ohne BBG)
Figur 1 zeigt die Wirkung von BBG 0,025% Gew.-% auf die Toxizität von unterschiedlichen Konzentrationen (in Gew.-%) von Benzalkoniumchlorid (BAK) auf HCE-Zellen (HCE = human corneal epithelium, Menschliche Hornhautepithelzellen) bei verschiedenen Einwirkdauern (5, 30, 60 min).
Figur 2 zeigt die Wirkung von BBG (in Gew.-%) in unterschiedlichen Konzentrationen und zwei unterschiedlichen Medien (PBS und BSS) auf die Toxizität von BAK bei 0,003% (oben) und 0,008% (unten) bei HCE-Zellen. Die Schutzwirkung von BBG bei niedrigeren BAK-Konzentrationen setzt schon bei 0,003% BBG ein. Bei höheren BAK-Konzentrationen sind 0,015% notwendig.
Figur 3 zeigt die Wirkung von BBG (0,025 Gew.-%) auf die Toxizität von Octenidin (Oct) Form von Octenidindihydrochlorid in unterschiedlichen Konzentrationen (in Gew.-%) nach 5 min Inkubation (oben) und 30 min Inkubation (unten). Octenidin alone = Octenidin allein (ohne BBG). […] BBG (0,025 Gew.-%) kann diesen Effekt bei 5 min Inkubation (links) bis zu einer Oct-Konzentration von 0,01% (der höchsten getesteten Konzentration) verhindern. Bei 30 min Einwirkzeit (rechts) ist erst ab 0,009 Gew.-% Oct der Schutz nicht mehr maximal.
Die Figuren 4 und 5 zeigen die Wirkung von BBG (0,025 Gew.-%) auf die Toxizität von Cetylpyridiniumchlorid (CPC, Fig. 4) und Chlorhexidin (CHex in Form von Chlorhexidindigluconat, Fig. 5) in unterschiedlichen Konzentrationen (in Gew.-%) nach 5 min Inkubation (jeweils oben) und 30 min Inkubation (jeweils unten).

[2] = tested on: Pseudomonas putida DSM 291; test: Bacteriostatic effect of Octenidin with BBG: turbidity after 24 h incubation; assay type: cell-based; design: key: +: Bakterienwachstum nach 24 h Inkubation; -: kein Bakterienwachstum nach 24 h Inkubation; details: no BBG
Description: as §1
(§3) Gram-negative Bakterien (hier E. coli) sind widerstandsfähiger als Gram-positive Bakterien (hier Bacillus sp.) und wachsen konzentrationsabhängig. […] Tabelle 3: Einfluss von BBG auf die bakteriostatische Wirkung von Octenidin (Oct) gegenüber Gram-negativen Bakterien., + = Bakterienwachstum nach 24 h Inkubation, - = kein Bakterienwachstum nach 24 h Inkubation, BBG = Brillantblau G.

Escherichia coli DH5α = test: as above; assay type: cell-based; design: key: +: Bakterienwachstum nach 24 h Inkubation; -: kein Bakterienwachstum nach 24 h Inkubation; details: no BBG
Description: as §1, §3

Vibrio sp. Gal12 = test: as above; assay type: cell-based; design: key: +: Bakterienwachstum nach 24 h Inkubation; -: kein Bakterienwachstum nach 24 h Inkubation; details: no BBG
Description: as §1, §3

[3] = tested on: Escherichia coli (E. coli); test: Bacteriostatic effect of BAK with BBG/BBR: turbidity after 24 h incubation; assay type: cell-based; design: key to Bakterienwachstum nach 24 h Inkubation: +: Bakterienwachstum nach 24 h Inkubation; -: kein Bakterienwachstum nach 24 h Inkubation
Description: as §1

Bacillus sp. = test: as above; assay type: cell-based; design: key to Bakterienwachstum nach 24 h Inkubation: +: Bakterienwachstum nach 24 h Inkubation; -: kein Bakterienwachstum nach 24 h Inkubation
Description: as §1
Tabelle 2: Einfluss von BBG und BBR auf die bakteriostatische Wirkung von BAK gegenüber Bacillus sp., + = Bakterienwachstum nach 24 h Inkubation, - = kein Bakterienwachstum nach 24 h Inkubation, R = Brillantblau R (BBR), G = Brillantblau G (BBG).

## CCCCCCCCN=c1ccn(CCCCCCCCCCn2ccc(=NCCCCCCCC)cc2)cc1 [Octenidin, reference compound]
Bacillus megaterium; Octenidin 0,01% alone
  Bakterienwachstum nach 24 h Inkubation: -
Bacillus megaterium; Octenidin 0,002% alone
  Bakterienwachstum nach 24 h Inkubation: -
Bacillus megaterium; Octenidin 0,003% alone
  Bakterienwachstum nach 24 h Inkubation: -
Bacillus megaterium; Octenidin 0,005% alone
  Bakterienwachstum nach 24 h Inkubation: -
Bacillus megaterium; Octenidin 0,007% alone
  Bakterienwachstum nach 24 h Inkubation: -
Bacillus megaterium; Octenidin 0,009% alone
  Bakterienwachstum nach 24 h Inkubation: -
Paenibacillus sp.; Octenidin 0,01% alone
  Bakterienwachstum nach 24 h Inkubation: -
Paenibacillus sp.; Octenidin 0,002% alone
  Bakterienwachstum nach 24 h Inkubation: -
Paenibacillus sp.; Octenidin 0,003% alone
  Bakterienwachstum nach 24 h Inkubation: -
Paenibacillus sp.; Octenidin 0,005% alone
  Bakterienwachstum nach 24 h Inkubation: -
Paenibacillus sp.; Octenidin 0,007% alone
  Bakterienwachstum nach 24 h Inkubation: -
Paenibacillus sp.; Octenidin 0,009% alone
  Bakterienwachstum nach 24 h Inkubation: -
Bacillus subtilis; Octenidin 0,01% alone
  Bakterienwachstum nach 24 h Inkubation: -
Bacillus subtilis; Octenidin 0,002% alone
  Bakterienwachstum nach 24 h Inkubation: -
Bacillus subtilis; Octenidin 0,003% alone
  Bakterienwachstum nach 24 h Inkubation: -
Bacillus subtilis; Octenidin 0,005% alone
  Bakterienwachstum nach 24 h Inkubation: -
Bacillus subtilis; Octenidin 0,007% alone
  Bakterienwachstum nach 24 h Inkubation: -
Bacillus subtilis; Octenidin 0,009% alone
  Bakterienwachstum nach 24 h Inkubation: -
[1]; Octenidin 0,01% alone
  Bakterienwachstum nach 24 h Inkubation: -
[1]; Octenidin 0,002% alone
  Bakterienwachstum nach 24 h Inkubation: -
[1]; Octenidin 0,003% alone
  Bakterienwachstum nach 24 h Inkubation: -
[1]; Octenidin 0,005% alone
  Bakterienwachstum nach 24 h Inkubation: -
[1]; Octenidin 0,007% alone
  Bakterienwachstum nach 24 h Inkubation: -
[1]; Octenidin 0,009% alone
  Bakterienwachstum nach 24 h Inkubation: -
HCE-Zellen
  Toxizität (Zellschädigung): stark zellschädigend
[2]; Octenidin 0,01% alone
  Bakterienwachstum nach 24 h Inkubation: -
[2]; Octenidin 0,002% alone
  Bakterienwachstum nach 24 h Inkubation: -
[2]; Octenidin 0,003% alone
  Bakterienwachstum nach 24 h Inkubation: -
[2]; Octenidin 0,005% alone
  Bakterienwachstum nach 24 h Inkubation: -
[2]; Octenidin 0,007% alone
  Bakterienwachstum nach 24 h Inkubation: -
[2]; Octenidin 0,009% alone
  Bakterienwachstum nach 24 h Inkubation: -
Escherichia coli DH5α; Octenidin 0,01% alone
  Bakterienwachstum nach 24 h Inkubation: -
Escherichia coli DH5α; Octenidin 0,002% alone
  Bakterienwachstum nach 24 h Inkubation: -
Escherichia coli DH5α; Octenidin 0,003% alone
  Bakterienwachstum nach 24 h Inkubation: -
Escherichia coli DH5α; Octenidin 0,005% alone
  Bakterienwachstum nach 24 h Inkubation: -
Escherichia coli DH5α; Octenidin 0,007% alone
  Bakterienwachstum nach 24 h Inkubation: -
Escherichia coli DH5α; Octenidin 0,009% alone
  Bakterienwachstum nach 24 h Inkubation: -
Vibrio sp. Gal12; Octenidin 0,01% alone
  Bakterienwachstum nach 24 h Inkubation: -
Vibrio sp. Gal12; Octenidin 0,002% alone
  Bakterienwachstum nach 24 h Inkubation: -
Vibrio sp. Gal12; Octenidin 0,003% alone
  Bakterienwachstum nach 24 h Inkubation: -
Vibrio sp. Gal12; Octenidin 0,005% alone
  Bakterienwachstum nach 24 h Inkubation: -
Vibrio sp. Gal12; Octenidin 0,007% alone
  Bakterienwachstum nach 24 h Inkubation: -
Vibrio sp. Gal12; Octenidin 0,009% alone
  Bakterienwachstum nach 24 h Inkubation: -

## Benzalkoniumchlorid [BAK]
[3]; BAK 0,01% alone, no dye
  Bakterienwachstum nach 24 h Inkubation: -
[3]; BAK 0,001 % alone, no dye
  Bakterienwachstum nach 24 h Inkubation: -
Bacillus sp.; BAK 0.001% alone, no dye
  Bakterienwachstum nach 24 h Inkubation: -

## Brillantblau R [BBR]
HCE-Zellen; dye given together with the bacteriostatic agent
  Schutzwirkung (zelltoxische Wirkung der Bakteriostatika bei gleichzeitiger Gabe): zeigte sich diese Schutzwirkung nicht
[3]; 0,007% R + BAK 0,01%
  Bakterienwachstum nach 24 h Inkubation: -
[3]; 0,007% R + BAK 0,001 %
  Bakterienwachstum nach 24 h Inkubation: +
[3]; 0,007% R + BAK 0,0016%
  Bakterienwachstum nach 24 h Inkubation: +
[3]; 0,007% R + BAK 0,0025%
  Bakterienwachstum nach 24 h Inkubation: -
[3]; 0,007% R + BAK 0,004%
  Bakterienwachstum nach 24 h Inkubation: -
[3]; 0,007% R + BAK 0,006%
  Bakterienwachstum nach 24 h Inkubation: -
[3]; 0,015% R + BAK 0,01%
  Bakterienwachstum nach 24 h Inkubation: -
[3]; 0,015% R + BAK 0,001 %
  Bakterienwachstum nach 24 h Inkubation: +
[3]; 0,015% R + BAK 0,0016%
  Bakterienwachstum nach 24 h Inkubation: +
[3]; 0,015% R + BAK 0,0025%
  Bakterienwachstum nach 24 h Inkubation: +
[3]; 0,015% R + BAK 0,004%
  Bakterienwachstum nach 24 h Inkubation: -
[3]; 0,015% R + BAK 0,006%
  Bakterienwachstum nach 24 h Inkubation: -
[3]; 0,030% R + BAK 0,01%
  Bakterienwachstum nach 24 h Inkubation: -
[3]; 0,030% R + BAK 0,001 %
  Bakterienwachstum nach 24 h Inkubation: +
[3]; 0,030% R + BAK 0,0016%
  Bakterienwachstum nach 24 h Inkubation: +
[3]; 0,030% R + BAK 0,0025%
  Bakterienwachstum nach 24 h Inkubation: +
[3]; 0,030% R + BAK 0,004%
  Bakterienwachstum nach 24 h Inkubation: +
[3]; 0,030% R + BAK 0,006%
  Bakterienwachstum nach 24 h Inkubation: +
[3]; 0,030% R, Kein BAK
  Bakterienwachstum nach 24 h Inkubation: +
[3]; Gram-negative Bakterien (E. coli), concentration dependent
  Einfluss auf die bakteriostatische Wirkung von BAK: hebt einen Teil der bakteriostatischen Wirkung auf
[3]; dye alone, no BAK (rechte Spalte, Tabelle 1)
  Einfluss auf das Bakterienwachstum: beeinflussen das Bakterienwachstum nicht
Bacillus sp.; 0.007% R + BAK 0.001%
  Bakterienwachstum nach 24 h Inkubation: -
Bacillus sp.; 0.007% R + BAK 0.01%
  Bakterienwachstum nach 24 h Inkubation: -
Bacillus sp.; 0.030% R, Kein BAK
  Bakterienwachstum nach 24 h Inkubation: +
Bacillus sp.; dye alone, no BAK (rechte Spalte, Tabelle 2)
  Einfluss auf das Bakterienwachstum: beeinflussen das Bakterienwachstum nicht
